{"source": "the NIST ThermoML archive (doi:10.1021/je600518s)", "settings": "Liquid, Ebulliometric method (Recirculating still)", "note": "Numbers after ± are expanded uncertainties."}
{"smiles": "COC(C)=O", "note": "[methyl ethanoate]", "values": [{"measurement": "vapor or sublimation pressure", "setting": "304 K", "value": "37.14 ± 0.19", "unit": "kPa"}, {"measurement": "vapor or sublimation pressure", "setting": "306 K", "value": "40.4 ± 0.21", "unit": "kPa"}, {"measurement": "vapor or sublimation pressure", "setting": "308 K", "value": "43.89 ± 0.22", "unit": "kPa"}, {"measurement": "vapor or sublimation pressure", "setting": "310 K", "value": "47.62 ± 0.24", "unit": "kPa"}, {"measurement": "vapor or sublimation pressure", "setting": "312 K", "value": "51.6 ± 0.26", "unit": "kPa"}, {"measurement": "vapor or sublimation pressure", "setting": "314 K", "value": "55.85 ± 0.28", "unit": "kPa"}, {"measurement": "vapor or sublimation pressure", "setting": "316 K", "value": "60.38 ± 0.31", "unit": "kPa"}, {"measurement": "vapor or sublimation pressure", "setting": "318 K", "value": "65.21 ± 0.33", "unit": "kPa"}, {"measurement": "vapor or sublimation pressure", "setting": "320 K", "value": "70.34 ± 0.36", "unit": "kPa"}, {"measurement": "vapor or sublimation pressure", "setting": "322 K", "value": "75.79 ± 0.39", "unit": "kPa"}, {"measurement": "vapor or sublimation pressure", "setting": "324 K", "value": "81.58 ± 0.41", "unit": "kPa"}, {"measurement": "vapor or sublimation pressure", "setting": "326 K", "value": "87.72 ± 0.45", "unit": "kPa"}, {"measurement": "vapor or sublimation pressure", "setting": "328 K", "value": "94.23 ± 0.48", "unit": "kPa"}, {"measurement": "vapor or sublimation pressure", "setting": "330 K", "value": "101.12 ± 0.51", "unit": "kPa"}, {"measurement": "vapor or sublimation pressure", "setting": "332 K", "value": "108.41 ± 0.55", "unit": "kPa"}, {"measurement": "vapor or sublimation pressure", "setting": "334 K", "value": "116.11 ± 0.59", "unit": "kPa"}, {"measurement": "vapor or sublimation pressure", "setting": "336 K", "value": "124.25 ± 0.63", "unit": "kPa"}, {"measurement": "vapor or sublimation pressure", "setting": "338 K", "value": "132.83 ± 0.67", "unit": "kPa"}]}
